Measured values published in patent publication US20240368163A1, “COMPOUNDS AND METHODS FOR MODULATING SPLICING” (REMIX THERAPEUTICS INC., priority 2021, published 2024).

Experiments:
Assay type in all cases: cell-based, human
MYB [1] = test: Splicing RT-qPCR assay, MYB mRNA canonical junction (CJ) and alternative junction (AJ); conditions: Homo sapiens; for AC50: increase in AJ mRNA
Procedure: (§1) Compounds described herein were used to modulate RNA transcript abundance in cells. The expression of a target mRNA was measured by detecting the formation of an exon-exon junction in the canonical transcript (CJ). A compound mediated exon-inclusion event was detected by observing an increase in formation of a new junction with an alternative exon (AJ). Real-time qPCR assays were used to detect these splicing switches and interrogate the potency of various compounds towards different target genes. A high-throughput real time quantitative PCR (RT-qPCR) assay was developed to measure these two isoforms of the mRNA (CJ and AJ) for exemplary genes, such as HTT, SMN2, and MYB, together with a control housekeeping gene, GAPDH or GUSB or PPIA, used for normalization. Briefly, the A673 or K562 cell line was treated with various compounds described herein (e.g., compounds of Formula (I)). After treatment, the levels of the HTT, MYB, or SMN2 mRNA targets were determined from each sample of cell lysate by cDNA synthesis followed by qPCR.
(§2) The A673 cell line was cultured in DMEM with 10% FBS. Cells were diluted with full growth media and plated in a 96-well plate (15,000 cells in 100 ul media per well). The plate was incubated at 37° C. with 5% CO2 for 24 hours to allow cells to adhere. An 11-point 3-fold serial dilution of the compounds was made in DMSO then diluted in media in an intermediate plate. Compounds were transferred from the intermediate plate to the cell plate with the top dose at a final concentration of 10 uM in the well. Final DMSO concentration was kept at or below 0.25%. The cell plate was returned to the incubator at 37° C. with 5% CO2 for an additional 24 hours.
(§3) The K562 cell line was cultured in IMDM with 10% FBS. For K562, cells were diluted with full growth media and plated in either a 96-well plate (50,000 cells in 50 uL media per well) or a 384-well plate (8,000-40,000 cells in 45 uL media per well). An 11-point 3-fold serial dilution of the compounds were made in DMSO then diluted in media in an intermediate plate. Compound was transferred from the intermediate plate to the cell plate with the top dose at a final concentration of 10 uM in the well. Final DMSO concentration was kept at or below 0.25%. Final volume was 100 uL for 96-well plate and 50 uL for 384-well plate. The cell plate was then placed in an incubator at 37° C. with 5% CO2 for 24 hours.
(§4) The cells were then gently washed with 50 uL-100 uL cold PBS before proceeding to addition of lysis buffer. 30 uL-50 μL of room temperature lysis buffer with DNAse I (and optionally RNAsin) was added to each well. Cells were shaken/mixed thoroughly at room temperature for 5-10 minutes for lysis to take place and then 3 uL-5 μL of room temperature stop solution was added and wells were shaken/mixed again. After 2-5 minutes, the cell lysate plate was transferred to ice for RT-qPCR reaction setup. The lysates could also be frozen at −80° C. for later use.
(§5) In some cases, a direct lysis buffer was used. An appropriate volume of 3× lysis buffer (10 mM Tris, 150 mM NaCl, 1.5%-2.5% Igepal and 0.1-1 U/uL RNAsin, pH 7.4) was directly added to either K562 or A673 cells in media and mixed by pipetting 3 times. The plates were then incubated at room temperature with shaking/rocking for 20-50 minutes to allow for lysis to take place. After this time, the cell lysate plate was transferred to ice to set up for the RT-qPCR reactions. The lysates could also be frozen at −80° C. for later use.
(§6) To set up 10 uL RT-qPCR reactions, cell lysates were transferred to 384-well qPCR plates containing the master mix according to the table below. The plates were sealed, gently vortexed, and spun down before the run. The volumes were adjusted accordingly in some instances where the reaction was carried in 20 μL. The table below summarizes the components of the RT-qPCR reactions:
(§7) The RT-qPCR reaction was performed using a QuantStudio (ThermoFisher) under the following fast cycling conditions. […]

Target C [2] = test: HiBiT protein abundance assay, Target C; conditions: Homo sapiens, K562, 24 h, modified K562 cells
Procedure: • Promega Nano-Glo HiBiT Lytic Detection System (cat #N3030) • Coming 384-well TC-treated microplates (cat #3570) • Synthego Engineered Cells Knock-In Clones
(§8) Cells were maintained in IMIDM with 10% FBS. Before the assay, cells were diluted with […] growth media (IMIDM+[…] media) and were seeded in a 384-well plate at a density of 10000 cells/well (for each cell line listed in Table 12). Each compound was prepared as a 10-point 3-fold serial dilution in DMSO with the top dose at a final concentration of 10 μM in the well. Unmodified K562 cells were added at the previously specified density with DMSO to serve as an assay baseline and positive control (PC) and DMSO only with the respective modified cell lines was added to the negative control (NC) columns. Final DMSO concentration was kept at or below 0.25%. Treated cell plates were placed in an incubator at 37° C. with 5% CO2 for 24 hours. After 24 hours, 25 μL of Complete HiBit Lytic reagent was added to each well at room temperature (e.g. one plate requiring 10 mL Lytic Buffer, 100 μL LgBiT Protein, 200 μL Lytic Substrate), shaken for 5 minutes at 600 RPM, then left to sit for 10 minutes for signal to stabilize before reading on a Spark Cyto plate reader (Tecan) with a 500 ms measurement time.
(§9) To determine compound effects on protein abundance of each target in Table 12, the percent response for each respective cell line was calculated at each compound concentration as follows:
(§10) For the normalized response at each concentration, a four-parameter logistical regression was fit to the data and the response was interpolated at the 50% value to determine a concentration for protein abundance at 50% (IC50) the untreated control.

HTT [3] = test: HiBiT protein abundance assay, HTT; conditions: Homo sapiens, K562, 24 h, modified K562 cells
Procedure: (§11) Compounds described herein were used to screen for effects on quantitative protein abundance using a HiBit assay system (Promega). Quantitative protein abundance was determined by measuring the protein levels of HiBit-tagged protein targets expressed in cell culture via luminescence using the Nano-Glo HiBiT Lytic Detection System, which uses a split complementation assay format to reconstitute NanoBiT enzyme to generate a luminescent signal. A protein abundance assay was developed such that endogenous protein targets could be modified with the HiBiT peptide tag and their abundance could be assessed after compound treatment. Briefly, K562 cell lines containing a HiBiT-modification were treated with various compounds described herein (e.g., compounds of Formulas (I), (II), or (III)). After treatment for 24 hours, the protein abundance of a specific target was determined by measuring luminescence.
as §8, §9, §10

MYB [4] = test: HiBiT protein abundance assay, MYB; conditions: Homo sapiens, K562, 24 h, modified K562 cells
Procedure: as §11, §8, §9, §10

Target C [5] = test: Splicing RT-qPCR panel, Target C canonical junction (CJ) mRNA; conditions: Homo sapiens, read-out: Target C IC50 (decrease in CJ mRNA levels)
Procedure: as §1, §2, §3, §4, §5, §6, §7

HTT [6] = test: Splicing RT-qPCR assay, HTT mRNA canonical junction (CJ) and alternative junction (AJ); conditions: Homo sapiens; for AC50: increase in AJ mRNA
Procedure: as §1, §2, §3, §4, §5, §6, §7

SMN2 = test: Splicing RT-qPCR panel, SMN2 canonical junction (CJ) mRNA; conditions: Homo sapiens, RT-qPCR panel, canonical junction mRNA; compound concentration having 50% response in CJ decrease; read-out: SMN2 IC50 (decrease in CJ mRNA levels)
Procedure: as §1, §2, §3, §4, §5, §6, §7

[7] = 24 h, decrease in CJ mRNA, A673 or K562 cells, 24 hours treatment, RT-qPCR, read-out: MYB CJ IC50
[8] = 24 h, A673 or K562 cells, 24 hours treatment, RT-qPCR
[9] = RT-qPCR panel, canonical junction mRNA, compound concentration having 50% response in CJ decrease, read-out: MYB IC50 (decrease in CJ mRNA levels)
[10] = RT-qPCR panel, canonical junction mRNA, compound concentration having 50% response in CJ decrease
[11] = RT-qPCR panel, canonical junction mRNA, compound concentration having 50% response in CJ decrease, read-out: HTT IC50 (decrease in CJ mRNA levels)

| Structure (SMILES) | IC50 (MYB [1]; [7]) [µM] | AC50 (MYB [1]; [8]) [µM] | IC50 (MYB [1]; [9]) [µM] | IC50 (Target C [2]; Table 13A) [µM] | IC50 (HTT [3]; Table 13A) [µM] | IC50 (MYB [4]; Table 13A) [µM] | IC50 (Target C [5]; [10]) [µM] | AC50 (HTT [6]; [8]) [µM] | IC50 (HTT [6]; [11]) [µM] | IC50 (SMN2) [µM] | IC50 (Target C [5]; gene panel, CJ qPCR, protocol of Example 142) [µM] | IC50 (MYB [1]; gene panel, CJ qPCR, protocol of Example 142, read-out: MYB IC50 (decrease in CJ mRNA levels)) [µM] | IC50 (Target C [2]; Table 13B) [µM] | IC50 (HTT [3]; Table 13B) [µM] | IC50 (MYB [4]; Table 13B) [µM] | IC50 (HTT [6]; 24 h, decrease in CJ mRNA, A673 or K562 cells, 24 hours treatment, RT-qPCR, read-out: HTT CJ IC50) [µM] |
| --- | --- | --- | --- | --- | --- | --- | --- | --- | --- | --- | --- | --- | --- | --- | --- | --- |
| C[C@@H]1C[C@H](N(C)c2ccc(-c3ccc(-c4cn[nH]c4)c4nn[nH]c34)nn2)CCN1 [Compound 115] | > 10 | > 10 | > 10 | > 10 | > 10 | > 10 |  |  |  |  |  |  |  |  |  |  |
| CN(c1cnc(-c2cc(F)c(-c3cnn(C)c3)c3cn[nH]c23)nn1)[C@@H]1C[C@H]2CC[C@@H](C1)N2 [Compound 290] | 1 to 10 | 0.1 to 1 | 1 to 10 |  |  |  | 0.1 to 1 | < 0.1 | < 0.1 | 0.1 to 1 |  |  |  |  |  |  |
| c1cnn(-c2ccc(-c3ccc(O[C@@H]4C[C@H]5CC[C@@H](C4)N5)nn3)c3cn[nH]c23)c1 [Compound 308] | < 0.1 | < 0.1 | < 0.1 |  |  |  | < 0.1 | < 0.1 | < 0.1 | < 0.1 |  |  |  |  |  |  |
| C[C@H]1C[C@@H](N(C)c2ccc(-c3ccc(-n4cccn4)c4cc[nH]c34)nn2)CCN1 [Compound 111] | 1 to 10 | > 10 | 1 to 10 | 1 to 10 | 1 to 10 | 1 to 10 | > 10 | > 10 |  |  |  |  |  |  |  |  |
| CN(c1ccc(-c2ccc(-c3cn[nH]c3)c3nn[nH]c23)nn1)[C@@H]1C[C@H]2CC[C@@H](C1)N2 [Compound 118] | > 10 | 1 to 10 | > 10 | 1 to 10 | 1 to 10 | 1 to 10 | 1 to 10 | > 10 |  |  |  |  |  |  |  |  |
| C[C@H]1C[C@@H](N(C)c2ccc(-c3ccc(-n4cccn4)c(=O)[nH]3)nn2)CCN1 [Compound 903] |  |  |  |  |  |  |  |  |  |  | > 10 | > 10 | > 10 | > 10 | > 10 |  |
| CN(c1ccc(-c2ccc(-c3cn[nH]c3)c3ccsc23)nn1)C1CC(C)(C)NC(C)(C)C1 [Compound 131] | > 10 | > 10 | > 10 |  |  |  |  | > 10 | 1 to 10 | 0.1 to 1 |  |  |  |  |  | 1 to 10 |
